Results on two compounds are retold here after US20160221932A1, “Methods and Uses of Melatonin Ligands” (priority 2013, published 2016).

In assay [1] the test system is rats with L5-L6 spinal nerves ligation. Nature of the assay: L5-L6 spinal nerves ligature model, von Frey paw withdrawal threshold. Format: in vivo, rat. Conditions: for AUC of the antiallodynic effect across 8 h: mean±SEM, VEH 36.24±1.8 g; for AUC antiallodynic effect compared with GBP 100 mg/kg / AUC antiallodynic effect compared with MLT 150 mg/kg: doses of 20 and 40 mg/kg; for tactile allodynia in L5-L6 nerve ligated rats / analgesic effect in allodynic rats: summary statement; for tactile allodynia in L5-L6 nerve ligated rats: hindpaw withdrawal threshold to mechanical stimulation; for analgesic effect in allodynic rats: hindpaw withdrawal threshold vs untreated allodynic rats. Here is the method:
Animals: Wistar rats (150-250 g, Charles-River Saint-Constant, Quebec, Canada) were used for the formalin test, hot plate test and L5-L6 spinal nerves ligature model. The animals were housed at constant room temperature and humidity under a 12 h light/dark cycle (lights on at 7 AM). Food and water were available ad libitum.
L5-L6 Spinal Nerves Ligature: Nerve injury results in abnormal pain perception, known as neuropathic pain, which is associated with hyperalgesia (high pain sensibility) and allodynia (pain perception induced by innocuous stimuli) (Campbell and Meyer, 2006). The rat model for neuropathic pain develop by Kim and Chung (Kim and Chung, 1992) was used in which the L5 and L6 spinal nerves were ligated and two weeks later allodynia was measured by paw stimulation with von Frey filaments. Briefly, animals were anesthetized with a mixture of ketamine/xylazine/acepromazine (i.p.). Following surgical preparation and exposure of the dorsal vertebral column, the left L5 and L6 spinal nerves were exposed and tightly ligated with 3.0 chromic catgut suture distal to the dorsal root ganglion. For sham-operated rats, the nerves were exposed but not ligated. The incisions were closed using 3.0 vicryl sutures, and the animals were allowed to recover for 13 days.
On day 14 after surgery, rats were singularly placed in a test chamber (clear plastic, wire mesh-bottomed cage) and allowed to acclimatize for 30-40 min. Von Frey filaments (Stoelting, Wood Dale, Ill., USA) were used to measure the 50% paw withdrawal threshold using the up and down method by (Chaplan et al., 1994). […] Lifting of the paw indicated a positive response and prompted the use of the next weaker filament, whereas absence of paw withdrawal after 5 s indicated a negative response and prompted the next filament of increasing weight. This paradigm continued for four more measurements after the initial change of the behavioral response, or until five consecutive negative (assigned a score of 15 g), or four consecutive positive (assigned a score of 0.25 g) responses. The resulting score were used to calculate the 50% response threshold by using the formula proposed by Dixon et al., 1980.
Allodynia was considered to be present when paw withdrawal thresholds were less than 4 g. (Chaplan et al., 1994). All nerve-ligated rats were verified to be allodynic, responding to a stimulus of less than 4 g. Rats without allodynia were excluded. Following the determination of the basal response, tactile allodynia was assessed at 0.5, 1, 2, 3, 4, 5, 6, 7 and 8 h post-administration for each treatment below described.
[…] […] Another group of rats received only the vehicle (VEH) consisting on a 70% DMSO/saline solution (0.9% NaCl). All treatments were administered in a single subcutaneous injection with a volume of 1 ml. Rats were tested at 0 h (basal withdrawal threshold) and 0.5, 1, 2, 3, 4, 5, 6, 7 and 8 h post-treatment administration.
Statistical Analysis: Data analysis was done using SigmaPlot 12 (Systat Software, Inc.). Two-way ANOVA for repeated measures was used to analyze data from L5-L6 models using treatments (between) and testing time (within) as factors. One-way ANOVA was used to analyze AUC in the L5-L6 spinal nerves ligation model. One-way ANOVA was used for formalin and hot-plate tests. Post-hoc analyses were performed using Bonferroni t-test comparisons or Student-Newman-Keuls (SNK) test. All data are expressed as mean±Standard Error of the Mean (SEM). P<0.05 was considered significant.

Assay [2] addresses T1, human MT2 receptor (Homo sapiens, UniProt P49286).
T1 construct: expressed in transfected cells
T1 sequence (P49286 1-362): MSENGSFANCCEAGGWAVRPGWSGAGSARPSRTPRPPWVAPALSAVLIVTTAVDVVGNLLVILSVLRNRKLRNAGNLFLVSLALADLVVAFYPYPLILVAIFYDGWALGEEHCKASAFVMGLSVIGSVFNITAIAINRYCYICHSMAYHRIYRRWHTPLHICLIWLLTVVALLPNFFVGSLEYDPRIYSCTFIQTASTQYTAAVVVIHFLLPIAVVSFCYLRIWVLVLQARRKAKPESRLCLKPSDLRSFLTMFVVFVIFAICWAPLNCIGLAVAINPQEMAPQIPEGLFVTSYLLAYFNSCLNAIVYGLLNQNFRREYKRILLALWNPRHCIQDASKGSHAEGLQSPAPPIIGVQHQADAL
Nature of the assay: 2-[125I]iodomelatonin competition binding, human MT2 in CHO cells.

Setting [3] is: 20 mg/kg s.c., at 3 h (5b) or 5 h (5p) post-administration.
The mark [4] stands for this setting: 40 mg/kg s.c., at 2 h (5b) or 5 h (5p) post-administration.

“Also recorded” adds a separate entry of the source.

In the case of `COc1cccc(N(CCNC(C)=O)c2ccccc2)c1` [5b, N-{2-[(3-Methoxyphenyl)-phenylamino]ethyl}acetamide], the “AUC of the antiallodynic effect across 8 h” value in assay [1] (5 mg/kg s.c.) turned out to be 81.11 ± 4.8 g. In addition, the “AUC of the antiallodynic effect across 8 h” value in assay [1] (10 mg/kg s.c.) worked out at 70.24 ± 4.23 g. In assay [1] (20 mg/kg s.c.), the “duration of effect on paw withdrawal threshold, post-administration” value (from here on “duration of effect”) is recorded as “up to 5 h”; the “reduction of the mechanical allodynia above the threshold (4 g)” value (“reduction” for short) is on record as “reduction of the mechanical allodynia above the threshold”; the “start of increase of paw withdrawal threshold, post-administration” value (shortened to “start of increase … post-administration”) is 1 h; the “AUC of the antiallodynic effect across 8 h” value came to 219.12 ± 24.13 g. Further, the “highest increase in paw withdrawal threshold” value (shortened to “highest increase”) in assay [1] (setting [3]) was determined as 419 % from basal. In assay [1] (40 mg/kg s.c.), the “duration of effect” value is given as no more than 6 h; the “reduction” value was “reduction of the mechanical allodynia above the threshold”; the “start of increase … post-administration” value is 0.5 h; the “AUC of the antiallodynic effect across 8 h” value is 220.13 ± 13.65 g. Further, in assay [1] (setting [4]), the “highest increase” value turned out to be 395 % from basal. For the same compound, in assay [1], the “AUC antiallodynic effect compared with GBP 100 mg/kg” value was “comparable”, the “AUC antiallodynic effect compared with MLT 150 mg/kg” value is reported as “superior to MLT”, the “tactile allodynia in L5-L6 nerve ligated rats” value is “reversed tactile allodynia; also recorded: reduced allodynia” and the “analgesic effect in allodynic rats” value is “increased the analgesic effect”. In addition, the “MT2 affinity compared with melatonin” value in assay [2] is “better MT2 affinity than melatonin”. Also, the MT2-selectivity result in assay [2] (MT2 versus MT1) is reported as “good MT2-selectivity”. In assay [2] (human MT2 stably expressed in CHO cells, calculated from IC50 by Cheng and Prusoff), the “MT2 pKi” value is 10.18.

`CC(=O)NCCN(c1ccc(F)cc1)c1cccc(Br)c1` [5p, N-{2-[(3-Bromophenyl)-4-fluorophenylamino]ethyl}acetamide]: in assay [1] (5 mg/kg s.c.), the “AUC of the antiallodynic effect across 8 h” value is 89.03 ± 6.33 g. In addition, in assay [1] (10 mg/kg s.c.), the “duration of effect” value is listed as “up to 3 h”; the “start of increase … post-administration” value amounted to 1 h; the “AUC of the antiallodynic effect across 8 h” value came to 127.75 ± 12.08 g. Besides, in assay [1] (20 mg/kg s.c.), the “duration of effect” value was “up to 6 h”; the “reduction” value is given as “reduction of the mechanical allodynia”; the “start of increase … post-administration” value came out at 1 h; the “AUC of the antiallodynic effect across 8 h” value was determined as 245.9 ± 19.9 g. In addition, the “highest increase” value in assay [1] (setting [3]) is on record as 394 % from basal. Moreover, in assay [1] (40 mg/kg s.c.), the “duration of effect” value was “up to 6 h”; the “reduction” value is “reduction of the mechanical allodynia”; the “start of increase … post-administration” value was found to be 1 h; the “AUC of the antiallodynic effect across 8 h” value amounted to 230.33 ± 17.69 g. In addition, the “highest increase” value in assay [1] (setting [4]) was found to be 427.65 % from basal. In addition, in assay [1], the “AUC antiallodynic effect compared with GBP 100 mg/kg” value is on record as “comparable”, the “AUC antiallodynic effect compared with MLT 150 mg/kg” value was “greater antiallodynic effect”, the “tactile allodynia in L5-L6 nerve ligated rats” value was “reduced allodynia; also recorded: reversed tactile allodynia” and the “analgesic effect in allodynic rats” value was “increased the analgesic effect”. The Ki in assay [2] (human MT2 stably expressed in CHO cells, calculated from IC50 by Cheng and Prusoff, read-out: MT2 pKi (converted)) is 537 pM.
